# According to patent publication US20220008425A1, “Pharmaceutical Composition for Treating B-Cell Lymphoma” (FUNDAN UNIVERSITY SHANGHAI CANER CENTER, priority 2018, published 2022):
# Several values for one entry are separate records, joined by “and”; a condition that tells them apart may be missing. Identical values can stand only once. Entries after “also recorded” stand apart in the source; their conditions may differ.
# Experiments:
# LY8-RCHO cells [1] = details: 48 hours; for cytotoxicity (induction of cell death), inhibitor used alone: inhibitor alone at increasing concentrations; for reversal of resistance to CHO (cytotoxicity of CHO), inhibitor co-treated with CHO: inhibitor at increasing concentrations with CHO
# Protocol: (§1) Further, we constructed LY8 and NU-DUL-1 cells resistant to chemotherapeutic drugs. Briefly, LY8-ORI and NU-DUL-1-ORI cells were treated with doxorubicin (Selleck Chemicals, Houston, Tex.) and vincristine (Selleck Chemicals, Houston, Tex.) at a clinical ratio of 50:1.4 by increasing the concentration. […] These cells were then treated with 2 μg/mL of 4-hydroperoxycyclophosphamide (4-HC) (Santa Cruz Biotechnology, Inc., Santa Cruz, Calif.) every 21 days for 3 cycles. The obtained CHO-resistant cells are referred to as LY8-CHO and NU-DUL-1-CHO, respectively. CHO-resistant cells were treated with doxorubicin, vincristine, and 4-HC every 22 days to maintain drug tolerance to CHO. […] To maintain RCHO resistance, LY8-RCHO cells and NU-DUL-1-RCHO cells were treated with 32 μg/mL of rituximab containing 20% (v/v) of NHS every 22 days, followed by treatment with doxorubicin, vincristine, and 4-HC. After 48 hours of treatment with doxorubicin, vincristine and 4-HC, drug resistance to CHO and RCHO was determined by a series of CCK-8 assays.
# (§2) Cells were seeded in a 96-well plate at a density of 1×10^4/100 μL/well. Cells were pretreated with IPI-145, abemaciclib, AZD4547, PF-573228, R788, or saracatinib at increasing concentrations with or without CHO for 48 hours prior to performing CytoTox-Glo™ cytotoxicity assay. We performed cytotoxicity assay by using a CytoTox-Glo™ cytotoxicity assay kit (Promega Inc., Madison, Wis.) according to their instructions. Briefly, 50 μL of CytoTox-Glo™ cytotoxicity assay reagent was added to all wells, mixed by orbital shaking, and then incubated for 15 minutes at room temperature. Luminescence of experimental dead cells was detected with a Synergy HT microplate reader (BioTek, Biotek Winooski, Minn.), wherein 50 μL of lysate was added to all wells, mixed and incubated for 15 minutes at room temperature prior to detection of total luminescence. Cytotoxicity was calculated according to the following formula: Cytotoxicity (%)=Experimental dead cell luminescence/Total luminescence×100%.
# NU-DUL-1-RCHO cells = details: 48 hours; for cytotoxicity (induction of cell death), inhibitor used alone: inhibitor alone at increasing concentrations; for reversal of resistance to CHO (cytotoxicity of CHO), inhibitor co-treated with CHO: inhibitor at increasing concentrations with CHO
# Protocol: as §1, §2
# [2] = system: CD20 and mCRPs (CD46, CD55, CD59) in RCHO-resistant LY8 cells; assay: FACS analysis of membrane expression of CD46, CD55, CD59 and CD20; assay type: cell-based, human
# Protocol: (§3) After being washed with PBS, cells were incubated with fluorescein-conjugated antibody for 30 minutes, followed by washing and resuspension of cells in PBS. Flow cytometry analysis was performed on a cytomics FC500 MPL instrument (Beckman Coulter, Inc., Brea, Calif.) and FlowJo software (Ashland, Inc., OR) was used for analysis. Cells were then sorted according to their relative fluorescence intensity by using a MoFlo XDP sorter (Beckman Coulter Inc., Brea, Calif.).
# [3] = system: CD20 and mCRPs (CD46, CD55, CD59) in RCHO-resistant NU-DUL-1 cells; assay: as above; assay type: cell-based, human
# Protocol: as §3
# LY8-RCHO cells [4] = assay: CDC assay (rituximab-mediated complement-dependent cytotoxicity); assay type: cell-based, human; details: pre-treated with inhibitor 24 hours, then rituximab and 20% NHS 2 hours
# Protocol: We constructed LY8 cells and NU-DUL-1 cells that are resistant to rituximab-mediated complement-dependent cytotoxicity (CDC). Briefly, original LY8 (LY8-ORI) cells and original NU-DUL-1 (NU-DUL-1-ORI) cells were treated with rituximab containing 20% (v/v) of NHS (Roche, Basel, Switzerland) with a concentration of gradually increasing from 4 μg/mL to 32 μg/mL to construct drug-resistant cells. […] Cytolysis induced by CDC was evaluated by detection of positive cells stained with propidium iodide (PI) through fluorescence activated cell sorting (FACS).
# [5] = system: AKT phosphorylation, SOX2, CDK6 and CSC-associated molecules in LY8-RCHO cells; assay: Immunoblot analysis; assay type: cell-based, human
# LY8-RCHO cells [6] = assay: Aldefluor analysis (ALDH1+ cells); assay type: cell-based, human
# Protocol: ALDH1 is a selectable marker for a variety of normal and cancer stem cells, including hematopoietic stem cells. Therefore, we assessed the number of cancer stem cells in hematopoietic malignancies by detecting ALDH1 positive cells. As previously described, we used an ALDEFLUOR™ kit (StemCell Technologies, Vancouver, BC, CA) to detect populations with high ALDH1 activity. Briefly, 1×10^6 cells were suspended in 1 mL of assay buffer containing 1 μM of BAAA, a substrate of […]. Suspended cells were then equally divided into two samples, one as a negative control and the other as a test sample. To form the negative control, […] of DEAB, a specific ALDH inhibitor, was added to one equally-divided sample. Cells were then incubated at 37° C. for 30 minutes prior to flow cytometry analysis.
# LY8-RCHO cells [7] = assay: EdU cell proliferation assay; assay type: cell-based, human; details: 1 μM
# Protocol: RCHO-resistant DLBCL cells were pretreated with duvelisib, abemaciclib, or AZD4547 at a concentration of 1 μM for 48 or 120 hours prior to EdU assay. For 120 hours of the study, the medium was replaced with a fresh medium containing 1 μM of inhibitor at 48 hours. EdU cell proliferation assay was performed by using a cell-light EdU Apollo643 in vitro flow cytometry kit (RiboBio Inc., Guangzhou, China) according to its instructions. Next, we assayed EdU staining positive cells on a Cytomics FC500 MPL flow cytometer (Beckman Coulter, Brea, Calif.).
# LY8-RCHO-Luc cells = assay: Transplantation model, bioluminescence tumor growth and survival; assay type: in vivo; details: SCID mice bearing LY8-RCHO-Luc cells
# Description: Construction of a transplantation model: we transduced LY8-RCHO cells and NU-DUL-1-RCHO cells with lentiviruses overexpressing the firefly luciferase gene to generate stable cells expressing firefly luciferase, referred to as LY8-RCHO-Luc cells and NU-DUL-1-RCHO-Luc cells, respectively. 8-week-old female SCID mice were purchased from SLAC (Shanghai laboratory animal center). The LY8-RCHO-Luc cells and NU-DUL-1-RCHO-Luc cells were resuspended in PBS prior to intraperitoneal injection of 1.5×10^7 cells per mouse. After intraperitoneal injection of the LY8-RCHO-Luc cells, mice were randomized into 6 groups (7 mice in every group) and given saline, R-CHOP, duvelisib, abemaciclib, R-CHOP+duvelisib, and R-CHOP+abemaciclib, respectively. Mice inoculated with the NU-DUL-1-RCHO-Luc cells were randomly divided into 6 groups (7 mice in every group), and were given saline, R-CHOP, duvelisib, AZD4547, R-CHOP+duvelisib, and R-CHOP+AZD4547, respectively. The drug dosing method based on one course of clinical use is shown in Table 1; the R-CHOP regimen was clinically used to treat DLBCL, while duvelisib, abemaciclib, and AZD4547 were tested in clinical trials (associated NCT numbers are NCT02576275, NCT01739309, and […], respectively). Tumor growth was monitored by bioluminescence at day 50 and day 90 after inoculation. For in vivo luminescence imaging, D-luciferin (Promega, Madison, Wis.) was intraperitoneally injected into mice (150 mg/kg). After 10 minutes, the mice were anesthetized by intraperitoneal injection of pentobarbital (50 mg/kg) and then their bioluminescence intensity was examined by using an In Vivo MS FX PRO system (Bruker Corporation, Billerica, Mass.). Luminescence images were captured with an exposure time of 30 seconds and the signal intensity of the tumor was measured by using Bruker MI software. The survival time of each mouse was recorded. Surviving mice were euthanized and dissected 120 days after inoculation and no intraperitoneal tumors were found. Tumor tissue was collected from moribund mice and fixed with 4% formalin. All animal experiments were performed in strict accordance with the experiment protocol approved by the animal ethics committee of Shanghai school of medicine of Fudan university.
smiles,measurement,setting,value
CN1CCN(CCOc2cc(OC3CCOCC3)c3c(Nc4c(Cl)ccc5c4OCO5)ncnc3c2)CC1 [saracatinib],"cytotoxicity (induction of cell death), inhibitor used alone",LY8-RCHO cells [1],negligible effect on direct induction of cell death
same,"reversal of resistance to CHO (cytotoxicity of CHO), inhibitor co-treated with CHO",LY8-RCHO cells [1],significantly reversed resistance of RCHO-resistant cells to CHO
same,"cytotoxicity (induction of cell death), inhibitor used alone",NU-DUL-1-RCHO cells,negligible effect on direct induction of cell death
same,"reversal of resistance to CHO (cytotoxicity of CHO), inhibitor co-treated with CHO",NU-DUL-1-RCHO cells,significantly reversed resistance of RCHO-resistant cells to CHO
NC1(c2ccc(-c3nc4ccn5c(=O)[nH]nc5c4cc3-c3ccccc3)cc2)CCC1 [MK-2206],membrane expression of CD20,[2],significantly reduced
same,"membrane expression of the other three mCRPs (CD46, CD55, CD59)",[2],the other three mCRPs did not
same,membrane expression of CD20,[3],significantly reduced
same,"membrane expression of the other three mCRPs (CD46, CD55, CD59)",[3],the other three mCRPs did not
COc1cc(Nc2ncc(F)c(Nc3ccc4c(c3)N(COP(=O)(O)O)C(=O)C(C)(C)O4)n2)cc(OC)c1OC [R788],"cytotoxicity (induction of cell death), inhibitor used alone",LY8-RCHO cells [1],negligible effect on direct induction of cell death
same,"reversal of resistance to CHO (cytotoxicity of CHO), inhibitor co-treated with CHO",LY8-RCHO cells [1],significantly reversed the resistance of RCHO-resistant cells to CHO
same,"cytotoxicity (induction of cell death), inhibitor used alone",NU-DUL-1-RCHO cells,negligible effect on direct induction of cell death
same,"reversal of resistance to CHO (cytotoxicity of CHO), inhibitor co-treated with CHO",NU-DUL-1-RCHO cells,significantly reversed the resistance of RCHO-resistant cells to CHO
CCN1CCN(Cc2ccc(Nc3ncc(F)c(-c4cc(F)c5nc(C)n(C(C)C)c5c4)n3)nc2)CC1 [abemaciclib],"cytotoxicity (induction of cell death), inhibitor used alone",LY8-RCHO cells [1],negligible effect on induction of cell death; also recorded: only negligible cytotoxicity on drug-resistant cells
same,"reversal of resistance to CHO (cytotoxicity of CHO), inhibitor co-treated with CHO",LY8-RCHO cells [1],restored sensitivity of RCHO-resistant cells to CHO; also recorded: significantly enhanced cytotoxicity of CHO
same,effect on resistance to R-mediated CDC,LY8-RCHO cells [4],failed to reverse resistance to R-mediated CDC
same,"levels of CSC-associated molecules (OCT4, NANOG, KLF4, c-MYC, CD34, CD133)",[5],had no effect on its levels but resulted in a reduction in C-MYC
same,proportion of ALDH1+ cells (CSCs),LY8-RCHO cells [6],had no effect on ALDH1+ subpopulations in LY8-RCHO cells
same,cell proliferation (EdU incorporation),LY8-RCHO cells [7]; 48 hours,prevented growth of LY8-RCHO cells at both 48 hours and 120 hours
same,cell proliferation (EdU incorporation),LY8-RCHO cells [7]; 120 hours,prevented growth of LY8-RCHO cells at both 48 hours and 120 hours
same,day of death of the two mice that died,"LY8-RCHO-Luc cells; inhibitor combined with R-CHOP, 7 mice per group",62 days and 78 days
same,tumor growth (total photon flux),"LY8-RCHO-Luc cells; inhibitor combined with R-CHOP, dosing per Table 1",significantly inhibited tumor growth
same,survival,"LY8-RCHO-Luc cells; inhibitor combined with R-CHOP, experiment ended at day 120",prolonged the survival rate compared with R-CHOP or an inhibitor alone
same,survival,"LY8-RCHO-Luc cells; regimen or inhibitor used alone, vs saline, dosing per Table 1",neither duvelisib nor abemaciclib alone inhibited tumor growth or prolonged the survival rate
same,tumor growth (total photon flux),"LY8-RCHO-Luc cells; regimen or inhibitor used alone, vs saline, dosing per Table 1, day 50 and 90",neither duvelisib nor abemaciclib alone inhibited tumor growth or prolonged the survival rate
CS(=O)(=O)c1cccc(CNc2nc(Nc3ccc4c(c3)CCC(=O)N4)ncc2C(F)(F)F)c1 [PF-573228],"cytotoxicity (induction of cell death), inhibitor used alone",LY8-RCHO cells [1],negligible effect on direct induction of cell death
same,"reversal of resistance to CHO (cytotoxicity of CHO), inhibitor co-treated with CHO",LY8-RCHO cells [1],significantly reversed resistance of RCHO-resistant cells to CHO
